From US20230374035A1, “RAS INHIBITORS” (Revolution Medicines, Inc., priority 2019, published 2023)
Like-named read-outs stand apart in the source and are kept apart here.

Legend:
KRAS G12C = KRAS G12C (Homo sapiens, UniProt P01116+P62937, G12C); assay: Disruption of BRAF RBD interaction with K-Ras (FRET / MOA assay); assay type: biochemical
Experimental: (§1) Compound is present in plate wells as a 10-point 3-fold dilution series starting at a final concentration of 30 μM. […] Compounds that facilitate disruption of a Ras:RAF complex are identified as those eliciting a decrease in the TR-FRET ratio relative to DMSO control wells.
(§2) Note—The following protocol describes a procedure for monitoring disruption of K-Ras G12C (GMP-PNP) binding to BRAF^RBD by a compound of the invention. This protocol may also be executed substituting other Ras proteins or nucleotides.
(§3) The purpose of this biochemical assay was to measure the ability of test compounds to facilitate ternary complex formation between a nucleotide-loaded K-Ras isoform and Cyclophilin A; the resulting ternary complex disrupts binding to a BRAF^RBD construct, inhibiting K-Ras signaling through a RAF effector. Data is reported as IC50 values.
(§4) Compound was present in plate wells as a 10-point 3-fold dilution series starting at a final concentration of 30 μM. […] Compounds that facilitate disruption of a K-Ras:RAF complex were identified as those eliciting a decrease in the TR-FRET ratio relative to DMSO control wells.

KRAS G12S = KRAS G12S (Homo sapiens, UniProt P01116+P62937, G12S); assay: as above; assay type: biochemical
Sequence of KRAS G12S (P01116 1-188 isoform P01116-2 G12S): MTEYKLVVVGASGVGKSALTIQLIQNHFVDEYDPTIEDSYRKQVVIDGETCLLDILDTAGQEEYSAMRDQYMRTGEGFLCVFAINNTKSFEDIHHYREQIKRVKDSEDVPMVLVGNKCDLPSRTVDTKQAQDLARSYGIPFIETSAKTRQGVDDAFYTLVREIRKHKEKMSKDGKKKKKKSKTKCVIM
Sequence of KRAS G12S (P62937 whole entry): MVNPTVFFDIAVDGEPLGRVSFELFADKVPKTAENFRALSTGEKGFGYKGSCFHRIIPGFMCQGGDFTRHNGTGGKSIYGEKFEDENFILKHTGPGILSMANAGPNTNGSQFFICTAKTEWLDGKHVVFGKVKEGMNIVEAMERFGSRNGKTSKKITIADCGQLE
Experimental: as §1, §2, §3, §4

KRAS G13C = KRAS G13C (Homo sapiens, UniProt P01116+P62937, G13C); assay: as above; assay type: biochemical
Sequence of KRAS G13C (P01116 1-188 isoform P01116-2 G13C): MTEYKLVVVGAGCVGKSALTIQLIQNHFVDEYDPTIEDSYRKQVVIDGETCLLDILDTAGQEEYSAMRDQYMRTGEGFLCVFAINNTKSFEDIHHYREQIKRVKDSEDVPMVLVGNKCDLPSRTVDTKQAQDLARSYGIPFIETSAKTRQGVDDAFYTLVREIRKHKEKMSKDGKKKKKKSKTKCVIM
Sequence of KRAS G13C (P62937 whole entry): as the sequence (P62937 whole entry) above
Experimental: as §1, §2, §3, §4

KRAS Q61H = KRAS Q61H (Homo sapiens, UniProt P01116+P62937, Q61H); assay: as above; assay type: biochemical; conditions: read-out: KRAS Q61H FRET data IC50
Sequence of KRAS Q61H (P01116 1-188 isoform P01116-2 Q61H): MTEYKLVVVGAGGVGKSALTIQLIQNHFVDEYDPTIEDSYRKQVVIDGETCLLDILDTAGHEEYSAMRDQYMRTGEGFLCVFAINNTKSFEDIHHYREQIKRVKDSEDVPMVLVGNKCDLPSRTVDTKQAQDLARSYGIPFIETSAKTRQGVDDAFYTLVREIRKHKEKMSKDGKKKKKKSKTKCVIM
Sequence of KRAS Q61H (P62937 whole entry): as the sequence (P62937 whole entry) above
Experimental: as §1, §2, §3, §4

NRAS G12C = NRAS G12C (Homo sapiens, UniProt P01111+P62937, G12C); assay: Disruption of BRAF RBD interaction with Ras (FRET / MOA assay); assay type: biochemical
Sequence of NRAS G12C (P01111 whole entry G12C): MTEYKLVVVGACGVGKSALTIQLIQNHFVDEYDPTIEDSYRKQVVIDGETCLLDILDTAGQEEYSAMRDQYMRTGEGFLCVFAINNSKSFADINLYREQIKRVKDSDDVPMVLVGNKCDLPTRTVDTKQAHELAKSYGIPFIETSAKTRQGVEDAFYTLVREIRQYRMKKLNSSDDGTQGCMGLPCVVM
Sequence of NRAS G12C (P62937 whole entry): as the sequence (P62937 whole entry) above
Summary of the method: (§5)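 Compounds were titrated in 10 points (3-fold, starting at 30 μM final) and assessed for promoting a Ras–Cyclophilin A ternary complex that blocks BRAF^RBD binding.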

NRAS Q61K = NRAS Q61K (Homo sapiens, UniProt P01111+P62937, Q61K); assay: as above; assay type: biochemical; conditions: read-out: NRAS Q61K FRET data IC50
Sequence of NRAS Q61K (P01111 whole entry Q61K): as the sequence (P01111 whole entry G12C) above, with C12G, Q61K counted along it
Sequence of NRAS Q61K (P62937 whole entry): as the sequence (P62937 whole entry) above
Summary of the method: as §5

NRAS Q61R = NRAS Q61R (Homo sapiens, UniProt P01111+P62937, Q61R); assay: as above; assay type: biochemical; conditions: read-out: NRAS Q61R FRET data IC50
Sequence of NRAS Q61R (P01111 whole entry Q61R): as the sequence (P01111 whole entry G12C) above, with C12G, Q61R counted along it
Sequence of NRAS Q61R (P62937 whole entry): as the sequence (P62937 whole entry) above
Summary of the method: as §5

NRAS WT = NRAS WT (Homo sapiens, UniProt P01111+P62937); assay: as above; assay type: biochemical; conditions: read-out: NRAS WT FRET data IC50
Sequence of NRAS WT (P01111 whole entry): as the sequence (P01111 whole entry G12C) above, with C12G counted along it
Sequence of NRAS WT (P62937 whole entry): as the sequence (P62937 whole entry) above
Summary of the method: as §5

NCI-H358 (K-Ras G12C) = assay: CellTiter-Glo Cell Viability Assay; assay type: cell-based; conditions: Homo sapiens, NCI-H358, 120 h; H358, 5-day treatment
KRAS G12D = KRAS G12D (Homo sapiens, UniProt P01116+P62937, G12D); assay: Disruption of BRAF RBD interaction with K-Ras (FRET / MOA assay); assay type: biochemical
Sequence of KRAS G12D (P01116 1-188 isoform P01116-2 G12D): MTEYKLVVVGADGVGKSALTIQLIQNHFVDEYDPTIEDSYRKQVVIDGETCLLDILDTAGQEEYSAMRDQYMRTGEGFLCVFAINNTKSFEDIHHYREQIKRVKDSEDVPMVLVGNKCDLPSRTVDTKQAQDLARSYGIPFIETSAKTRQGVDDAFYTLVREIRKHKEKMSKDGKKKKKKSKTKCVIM
Sequence of KRAS G12D (P62937 whole entry): as the sequence (P62937 whole entry) above
Experimental: as §1, §2, §3, §4

KRAS G12V = KRAS G12V (Homo sapiens, UniProt P01116+P62937, G12V); assay: as above; assay type: biochemical; conditions: read-out: FRET G12V IC50
Sequence of KRAS G12V (P01116 1-188 isoform P01116-2 G12V): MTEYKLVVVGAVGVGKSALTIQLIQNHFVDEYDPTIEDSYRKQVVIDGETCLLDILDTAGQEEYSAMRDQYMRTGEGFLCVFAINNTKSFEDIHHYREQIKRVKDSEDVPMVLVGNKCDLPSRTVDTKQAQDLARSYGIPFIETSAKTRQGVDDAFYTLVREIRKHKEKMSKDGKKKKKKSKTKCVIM
Sequence of KRAS G12V (P62937 whole entry): as the sequence (P62937 whole entry) above
Experimental: as §1, §2, §3, §4

KRAS G13D = KRAS G13D (Homo sapiens, UniProt P01116+P62937, G13D); assay: as above; assay type: biochemical
Sequence of KRAS G13D (P01116 1-188 isoform P01116-2 G13D): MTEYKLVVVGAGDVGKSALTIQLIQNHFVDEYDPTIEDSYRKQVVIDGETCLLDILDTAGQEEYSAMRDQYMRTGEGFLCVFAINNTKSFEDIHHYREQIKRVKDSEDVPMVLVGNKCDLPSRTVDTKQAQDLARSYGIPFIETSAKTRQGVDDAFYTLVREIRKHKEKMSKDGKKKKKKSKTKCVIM
Sequence of KRAS G13D (P62937 whole entry): as the sequence (P62937 whole entry) above
Experimental: as §1, §2, §3, §4

[1] = test system: NCI-H358 cells (K-Ras G12C); assay: Potency assay: pERK; assay type: cell-based; conditions: Homo sapiens
Experimental: The purpose of this assay is to measure the ability of test compounds to inhibit K-Ras in cells. […] This procedure measures a decrease in cellular pERK in response to test compounds. The procedure described below in NCI-H358 cells is applicable to K-Ras G12C.
NCI-H358 cells were grown and maintained using media and procedures recommended by the ATCC. On the day prior to compound addition, cells were plated in 384-well cell culture plates (40 μl/well) and grown overnight in a 37° C., 5% CO2 incubator. Test compounds were prepared in 10, 3-fold dilutions in DMSO, with a high concentration of 10 mM. On day of assay, 40 nl of test compound was added to each well of cell culture plate using an Echo550 liquid handler (LabCyte®). Concentrations of test compound were tested in duplicate. […]
In some experiments, cellular pERK level was determined using the AlphaLISA SureFire Ultra p-ERK1/2 Assay Kit (PerkinElmer). […] Signal was read on an Envision plate reader (PerkinElmer) using standard AlphaLISA settings. […] Signal was plotted vs. the decadal logarithm of compound concentration, and IC50 was determined by fitting a 4-parameter sigmoidal concentration response model.
In other experiments, cellular pERK was determined by In-Cell Western. […] Signal was plotted vs. the decadal logarithm of compound concentration, and IC50 was determined by fitting a 4-parameter sigmoidal concentration response model.

Capan-1 (K-Ras G12V) = assay: Potency assay: pERK; assay type: cell-based; conditions: Homo sapiens
AsPC-1 (K-Ras G12D) = assay: Potency assay: pERK; assay type: cell-based; conditions: Homo sapiens, ASPC1

Sequence of KRAS G12C (P01116 1-188 isoform P01116-2 G12C): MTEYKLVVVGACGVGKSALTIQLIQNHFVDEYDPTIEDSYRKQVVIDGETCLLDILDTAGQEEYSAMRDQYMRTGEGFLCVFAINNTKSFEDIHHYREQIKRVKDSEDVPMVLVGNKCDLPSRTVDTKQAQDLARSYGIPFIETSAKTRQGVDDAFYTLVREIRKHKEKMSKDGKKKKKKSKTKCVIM
Sequence of KRAS G12C (P62937 whole entry): as the sequence (P62937 whole entry) above

Row | IC50 (KRAS G12C; read-out: KRAS G12C FRET data IC50) [nM] | IC50 (KRAS G12S) [nM] | IC50 (KRAS G13C; read-out: KRAS G13C FRET data IC50) [nM] | IC50 (KRAS Q61H) [nM] | IC50 (NRAS G12C) [nM] | IC50 (NRAS Q61K) [nM] | IC50 (NRAS Q61R) [nM] | IC50 (NRAS WT) [nM] | IC50 (NCI-H358 (K-Ras G12C)) [nM] | IC50 (KRAS G12C; read-out: FRET G12C IC50) [nM] | IC50 (KRAS G12D) [nM] | IC50 (KRAS G12V) [nM] | IC50 (KRAS G13C; read-out: FRET G13C IC50) [nM] | IC50 (KRAS G13D) [nM] | EC50 [1] [nM] | EC50 (Capan-1 (K-Ras G12V)) [nM] | EC50 (AsPC-1 (K-Ras G12D)) [nM] | SMILES
1 | < 10 | < 10 | < 10 | < 10 | < 10 | 10 to 100 | 10 to 100 | < 10 | < 10 | – | – | – | – | – | – | – | – | CCn1c(-c2cccnc2[C@H](C)OC)c2c3cc(ccc31)-c1cc(O)cc(c1)C[C@H](NC(=O)[C@H](C(C)C)N(C)C(=O)[C@@H]1CCN(C(=O)OC)[C@@H]1c1ccccc1)C(=O)N1CCC[C@H](N1)C(=O)OCC(C)(C)C2 (atropisomer, axis not shown) [Compound A501]
2 | – | – | – | – | – | – | – | – | – | 450 | 228 | 3670 | 91 | 212 | 334 | 413 | 468 | CCn1c(-c2cnccc2COC)c2c3cc(ccc31)-c1cc(O)cc(c1)C[C@H](NC(=O)[C@H](C(C)C)N(C)C(=O)OC1CN(C)C1)C(=O)N1CCC[C@H](N1)C(=O)OCC(C)(C)C2 [Compound A74]
